In brackets after ≈: the same amount, converted by molar mass.
Assays:
Assay type in all cases: cell-based
S. aureus = test: MIC values, S. aureus (Tables 1-4)
S. pneumo. = test: MIC values, S. pneumo. (Tables 1-4)
E. faecalis = test: MIC values, E. faecalis (Tables 1-4)
H. flu = test system: H. flu
E. coli = test: MIC values, E. coli (Tables 1-4)

Structure (SMILES) | MIC S. aureus (S. aureus) [µg/mL] | MIC S. pneumo. (S. pneumo.) [ng/mL] | MIC E. faecalis (E. faecalis) [µg/mL] | MIC H. flu (H. flu) [µg/mL] | MIC E. coli (E. coli) [µg/mL]
CO[C@H]1/C=C/O[C@@]2(C)Oc3c(C)c(O)c4c(=O)c(c5oc6cc(N7CCC(N(C)C)CC7)cc(O)c6nc-5c4c3C2=O)NC(=O)/C(C)=C\C=C\[C@H](C)[C@H](O)[C@@H](C)[C@@H](O)[C@@H](C)[C@H](OC(C)=O)[C@@H]1C [Compound 17] | 0.008 (≈ 0.00863 µM) | 0.12 (≈ 0.000129 µM) | 1 (≈ 1.08 µM) | 1 (≈ 1.08 µM) | 8 (≈ 8.63 µM)
CO[C@H]1/C=C/O[C@@]2(C)Oc3c(C)c(O)c4c(=O)c(c5oc6cc(N7CCC(N(C)C)CC7)cc(O)c6nc-5c4c3C2=O)NC(=O)/C(C)=C\C=C\[C@H](C)[C@H](O)[C@@H](C)[C@@H](O)[C@@H](C)[C@H](O)[C@@H]1C [Compound 18] | 0.004 (≈ 0.00452 µM) | 0.12 (≈ 0.000136 µM) | 0.12 (≈ 0.136 µM) | 0.5 (≈ 0.565 µM) | 4 (≈ 4.52 µM)
CCOC(=O)NC1CCN(c2ccc3nc4c5c6c7c(C)c(O)c5c(=O)c(c-4n(C)c3c2)NC(=O)/C(C)=C\C=C\[C@H](C)[C@H](O)[C@@H](C)[C@@H](O)[C@@H](C)[C@H](OC(C)=O)[C@H](C)[C@@H](OC)/C=C/O[C@@](C)(O7)C6=O)CC1 [Compound 19] | 0.004 (≈ 0.00413 µM) | 1 (≈ 0.00103 µM) | 0.06 (≈ 0.062 µM) | 0.25 (≈ 0.258 µM) | 4 (≈ 4.13 µM)
COC1C=COC2(C)Oc3c(C)c(O)c4c(=O)c(c5oc6cc(N7CC8C(N)C8C7)cc(O)c6nc-5c4c3C2=O)NC(=O)C(C)=CC=CC(C)C(O)C(C)C(O)C(C)C(O)C1C (centres unmarked) [Compound 20] | 2 (≈ 2.34 µM) | 1000 (≈ 1.17 µM) | >8 | >8 | >8
CCOC(=O)NC1C2CN(c3cc(O)c4nc5c6c7c8c(C)c(O)c6c(=O)c(c-5oc4c3)NC(=O)C(C)=CC=CC(C)C(O)C(C)C(O)C(C)C(OC(C)=O)C(C)C(OC)C=COC(C)(O8)C7=O)CC21 (centres unmarked) [Compound 21] | 0.004 (≈ 0.00413 µM) | 1 (≈ 0.00103 µM) | 0.12 (≈ 0.124 µM) | 0.5 (≈ 0.516 µM) | 4 (≈ 4.13 µM)
CO[C@H]1/C=C/O[C@@]2(C)Oc3c(C)c(O)c4c(=O)c(c5oc6cc(N7CCC(NC(=O)OC(C)C)CC7)cc(O)c6nc-5c4c3C2=O)NC(=O)/C(C)=C\C=C\[C@H](C)[C@H](O)[C@@H](C)[C@@H](O)[C@@H](C)[C@H](OC(C)=O)[C@@H]1C [Compound 22] | 0.015 (≈ 0.0152 µM) | 0.25 (≈ 0.000254 µM) | 4 (≈ 4.06 µM) | 2 (≈ 2.03 µM) | >8
CO[C@H]1/C=C/O[C@@]2(C)Oc3c(C)c(O)c4c(=O)c(c5oc6cc(N7CCC(NS(=O)(=O)C(F)(F)F)CC7)cc(O)c6nc-5c4c3C2=O)NC(=O)/C(C)=C\C=C\[C@H](C)[C@H](O)[C@@H](C)[C@@H](O)[C@@H](C)[C@H](OC(C)=O)[C@@H]1C [Compound 23] | 0.015 (≈ 0.0145 µM) | 0.12 (≈ 0.000116 µM) | 4 (≈ 3.88 µM) | 2 (≈ 1.94 µM) | >8
CCCC(=O)NC1CCN(c2cc(O)c3nc4c5c6c7c(C)c(O)c5c(=O)c(c-4oc3c2)NC(=O)/C(C)=C\C=C\[C@H](C)[C@H](O)[C@@H](C)[C@@H](O)[C@@H](C)[C@H](OC(C)=O)[C@H](C)[C@@H](OC)/C=C/O[C@@](C)(O7)C6=O)CC1 [Compound 24] | 0.015 (≈ 0.0155 µM) | 1 (≈ 0.00103 µM) | 2 (≈ 2.06 µM) | 2 (≈ 2.06 µM) | >8
CO[C@H]1/C=C/O[C@@]2(C)Oc3c(C)c(O)c4c(=O)c(c5oc6cc(N7CCC(NS(C)(=O)=O)CC7)cc(O)c6nc-5c4c3C2=O)NC(=O)/C(C)=C\C=C\[C@H](C)[C@H](O)[C@@H](C)[C@@H](O)[C@@H](C)[C@H](OC(C)=O)[C@@H]1C [Compound 25] | 0.008 (≈ 0.00819 µM) | 1 (≈ 0.00102 µM) | 2 (≈ 2.05 µM) | 2 (≈ 2.05 µM) | >8
CCCNC(=O)NC1CCN(c2cc(O)c3nc4c5c6c7c(C)c(O)c5c(=O)c(c-4oc3c2)NC(=O)/C(C)=C\C=C\[C@H](C)[C@H](O)[C@@H](C)[C@@H](O)[C@@H](C)[C@H](O)[C@H](C)[C@@H](OC)/C=C/O[C@@](C)(O7)C6=O)CC1 [Compound 26] | 0.008 (≈ 0.00849 µM) | 0.12 (≈ 0.000127 µM) | 2 (≈ 2.12 µM) | 1 (≈ 1.06 µM) | >8
CO[C@H]1/C=C/O[C@@]2(C)Oc3c(C)c(O)c4c(=O)c(c5oc6cc(N7CCC(NS(C)(=O)=O)CC7)cc(O)c6nc-5c4c3C2=O)NC(=O)/C(C)=C\C=C\[C@H](C)[C@H](O)[C@@H](C)[C@@H](O)[C@@H](C)[C@H](O)[C@@H]1C [Compound 27] | 0.015 (≈ 0.016 µM) | 1 (≈ 0.00107 µM) | 1 (≈ 1.07 µM) | 0.12 (≈ 0.128 µM) | >8
CCCNC(=O)NC1CCN(c2cc(O)c3nc4c5c6c7c(C)c(O)c5c(=O)c(c-4oc3c2)NC(=O)/C(C)=C\C=C\[C@H](C)[C@H](O)[C@@H](C)[C@@H](O)[C@@H](C)[C@H](OC(C)=O)[C@H](C)[C@@H](OC)/C=C/O[C@@](C)(O7)C6=O)CC1 [Compound 28] | 0.03 (≈ 0.0305 µM) | 2 (≈ 0.00203 µM) | 1 (≈ 1.02 µM) | 0.25 (≈ 0.254 µM) | >8
CO[C@H]1/C=C/O[C@@]2(C)Oc3c(C)c(O)c4c(=O)c(c5oc6cc(N7CCC(NC(=O)OC(C)C)CC7)cc(O)c6nc-5c4c3C2=O)NC(=O)/C(C)=C\C=C\[C@H](C)[C@H](O)[C@@H](C)[C@@H](O)[C@@H](C)[C@H](O)[C@@H]1C [Compound 29] | 0.008 (≈ 0.00848 µM) | 0.12 (≈ 0.000127 µM) | 2 (≈ 2.12 µM) | 1 (≈ 1.06 µM) | >8
COC(=O)NC1CCN(c2cc(O)c3nc4c5c6c7c(C)c(O)c5c(=O)c(c-4oc3c2)NC(=O)/C(C)=C\C=C\[C@H](C)[C@H](O)[C@@H](C)[C@@H](O)[C@@H](C)[C@H](O)[C@H](C)[C@@H](OC)/C=C/O[C@@](C)(O7)C6=O)CC1 [Compound 30] | 0.015 (≈ 0.0164 µM) | 2 (≈ 0.00219 µM) | 1 (≈ 1.09 µM) | 0.5 (≈ 0.546 µM) | >8
CCOC(=O)NC1CCN(c2ccc3nc4c5c6c7c(C)c(O)c5c(=O)c(c-4n(C)c3c2)NC(=O)/C(C)=C\C=C\[C@H](C)[C@H](O)[C@@H](C)[C@@H](O)[C@@H](C)[C@H](O)[C@H](C)[C@@H](OC)/C=C/O[C@@](C)(O7)C6=O)CC1 [Compound 31] | 0.03 (≈ 0.0324 µM) | 0.5 (≈ 0.00054 µM) | 0.25 (≈ 0.27 µM) | 0.25 (≈ 0.27 µM) | 8 (≈ 8.64 µM)
COC(=O)NC1CCN(c2cc(O)c3nc4c5c6c7c(C)c(O)c5c(=O)c(c-4oc3c2)NC(=O)/C(C)=C\C=C\[C@H](C)[C@H](O)[C@@H](C)[C@@H](O)[C@@H](C)[C@H](OC(C)=O)[C@H](C)[C@@H](OC)/C=C/O[C@@](C)(O7)C6=O)CC1 [Compound 32] | 2 (≈ 2.09 µM) | 4000 (≈ 4.18 µM) | >8 | >8 | >8
CO[C@H]1/C=C/O[C@@]2(C)Oc3c(C)c(O)c4c(=O)c(c5oc6cc(N7CCC(N)CC7)cc(O)c6nc-5c4c3C2=O)NC(=O)/C(C)=C\C=C\[C@H](C)[C@H](O)[C@@H](C)[C@@H](O)[C@@H](C)[C@H](OC(C)=O)[C@@H]1C [Compound 33] | 0.008 (≈ 0.0089 µM) | 0.06 (≈ 6.67e-05 µM) | 1 (≈ 1.11 µM) | 1 (≈ 1.11 µM) | >8
CCNC(=O)NC1CCN(c2cc(O)c3nc4c5c6c7c(C)c(O)c5c(=O)c(c-4oc3c2)NC(=O)/C(C)=C\C=C\[C@H](C)[C@H](O)[C@@H](C)[C@@H](O)[C@@H](C)[C@H](OC(C)=O)[C@H](C)[C@@H](OC)/C=C/O[C@@](C)(O7)C6=O)CC1 [Compound 34] | 0.03 (≈ 0.0309 µM) | 1 (≈ 0.00103 µM) | 2 (≈ 2.06 µM) | 0.5 (≈ 0.515 µM) | 8 (≈ 8.25 µM)
CCCS(=O)(=O)NC1CCN(c2cc(O)c3nc4c5c6c7c(C)c(O)c5c(=O)c(c-4oc3c2)NC(=O)/C(C)=C\C=C\[C@H](C)[C@H](O)[C@@H](C)[C@@H](O)[C@@H](C)[C@H](OC(C)=O)[C@H](C)[C@@H](OC)/C=C/O[C@@](C)(O7)C6=O)CC1 [Compound 35] | 0.015 (≈ 0.0149 µM) | 0.25 (≈ 0.000249 µM) | 4 (≈ 3.98 µM) | 0.5 (≈ 0.497 µM) | 8 (≈ 7.96 µM)
